Source: paper PMC11676667, “Pharmacokinetics of Oral Cannabinoid Δ8-Tetrahydrocannabivarin and Its Main Metabolites in Healthy Participants” (Pharmaceuticals, 2024)

Test: Plasma pharmacokinetics after single oral dose of Δ8-THCV in MCT oil (LC-MS/MS, non-compartmental analysis)
Type: in vivo, human
Conditions: of 504 plasma samples from 15 participants after oral Δ8-THCV
Method: The study was a two-phase, dose-ranging, placebo-controlled trial in 21 healthy participants to assess the safety, tolerability, PK, and PD of an oral formulation of Δ8-THCV. A detailed description of the study was published elsewhere. The study product was a medium-chain triglyceride (MCT) oil oral formulation of Δ8-THCV at a concentration of 50 mg/mL. […] MCT oil was used as placebo.
Twenty-one participants were enrolled in the clinical study and plasma samples from 15 participants were sent to our laboratory for pharmacokinetic evaluation. Of these, 3 participants were enrolled in Phase 1, an unblinded, placebo-controlled, single ascending dose design and 12 were enrolled in Phase 2, a double-blind, randomized, placebo-controlled, within-participant crossover design. At each study session, participants received one of the following oral doses: placebo, 12.5 mg, 25 mg, 50 mg, 100 mg, and 200 mg of the aforementioned Δ8-THCV formulation in MCT. Study visits were separated by a washout period of a minimum of one week and maximum of 28 days. Participants entered the research facility the night before the session and received the study product in the morning after a standardized high-fat, high-calorie breakfast. PK blood samples included in this analysis were collected prior to dosing and 0.5, 1, 2, 4, 6, and 8 h after dose. Immediately following collection into K2EDTA tubes, blood samples were placed on wet ice, centrifuged, and plasma was immediately frozen at −80 °C until shipment to the bioanalytical laboratory (iC42 Clinical Research and Development, University of Colorado, Aurora, CO, USA) on dry ice.
Plasma samples were analyzed using a validated high-performance liquid chromatography–tandem mass spectrometry (LC-MS/MS) assay. The assay included Δ8-THCV and its main metabolites 11-OH-Δ8-THCV and Δ8-THCV-COOH, Δ9-THCV and its main metabolite Δ9-THCV-COOH, and Δ9-THC and Δ8-THC as well as their main metabolites (Figure 3). The complete list of analyzed compounds and a summary of the key performance parameters of the assay are presented in Appendix A and Table A1 and Table A2. […] For the PK analysis, concentrations below the lower limit of quantification were set to 0 ng/mL. PK parameters were calculated using non-compartmental analysis (Phoenix WinNonlin version 8.4., Certara, Princeton, NJ, USA). Statistical analysis was carried out using GraphPad Prism (version 10, Boston, MA, USA).

CCCCCc1cc(O)c2c(c1)OC(C)(C)[C@@H]1CC=C(C)CC21 (some centres unmarked) [Δ8-THC, Δ8-tetrahydrocannabinol, reference compound]
number of positive plasma samples: No positive samples

CCCCCc1cc(O)c2c(c1)OC(C)(C)[C@@H]1CCC(C)=CC21 (some centres unmarked) [Δ9-THC, Δ9-tetrahydrocannabinol, reference compound]
number of positive plasma samples: No positive samples
